pEC50: −log10 of the molar value.
What was measured:
[1] = In vitro radical scavenging action (DPPH method); conditions: 30 minutes at room temperature, maximum concentration 100 μmol/L
Procedure: Radical scavenging action was evaluated using the DPPH method in the compound of Comparative Example 1, which is a tetrahydroquinoxaline derivative, and in the tetrahydroquinoline derivative (I) or a pharmaceutically acceptable salt thereof. The DPPH method was performed using an antioxidant capacity measurement kit (Dojindo Laboratories).
A test compound was dissolved in DMSO, and the resulting solution was then mixed with an assay buffer and a DPPH solution, which are included in the kit, to a total volume of 200 μL to obtain a final concentration of 10% DMSO, and the reaction was allowed to proceed. Wells added with 100 μmol/L ferrostatin-1, a radical scavenger, were grouped as “control,” and wells added with not test compound were grouped as “background.” The test compound was serially diluted 3-fold starting from a maximum concentration of 100 μmol/L, and the diluted test compound (1.2, 3.7, 11.1, 33.3, or 100 μmol/L) was added and allowed to react at room temperature. Thirty minutes after the reaction, the absorbance at 517 nm was measured, and the average absorbance value was calculated (N=2). The radical scavenging action of the test compound (hereinafter referred to as radical scavenging rate, %) was calculated based on the equation 2 below. The EC50 value of the test compound was calculated from the radical scavenging rate. Radical scavenging rate (%)=[1−{(Average absorbance value at 517 nm measured when a test compound is added)−(Average absorbance value at 517 nm measured in the background)}/{(Average absorbance value at 517 nm measured in the control)−(Average absorbance value at 517 nm measured in the background)}]×100 Equation 2
A note “no detection of radical scavenging action (N.D.),” is given to compounds with a EC50 of >100 μmol/L.

[2] = test system: Human fibrosarcoma cells (HT-1080 cells); assay: In vitro inhibitory action against ferroptosis (Erastin-induced cell death, Cell Counting Kit-8); format: cell-based; conditions: Erastin 3 μmol/L, 24 hours
Procedure: The inhibitory action against ferroptosis of the tetrahydroquinoline derivative (I) or a pharmaceutically acceptable salt thereof was evaluated with Human fibrosarcoma cells (HT-1080 cells), by using, as an index, the inhibitory action against the cell death induced by treatment with a ferroptosis inducer, Erastin.
HT-1080 cells (ATCC) were cultured in a mixture (hereinafter referred to as vehicle) composed of DMEM/F12 (Thermo Fisher Scientific, Inc.), a final concentration of 10% fetal bovine serum (Thermo Fisher Scientific, Inc.), and a final concentration of 1% penicillin-streptomycin solution (Nacalai Tesque, Inc.). Cells were seeded into 96-well plates (Corning Inc.) at 5×10^4 cells/well and cultured overnight.
A test compound was dissolved in DMSO, and the resulting solution was diluted in the vehicle to a final concentration of 1% DMSO and then used. […] Thirty minutes after the addition of the test compound, Erastin (Cayman Chemical Co.) diluted in the vehicle at a final concentration of 3 μmol/L was added to wells. The wells added with the test compound and Erastin were grouped as “test compound,” and the wells added with no test compound and no Erastin were grouped as “background,” and the wells added with no test compound but with Erastin were grouped as “control.” Twenty-four hours after the addition of Erastin, 5 μL of Cell Counting Kit-8 (Dojindo Laboratories) was added to each well and incubated for 4 hours, and the absorbance at 450 nm was then measured for each well (N=2). […] Ferroptosis inhibition rate (%)=[1−{(Average absorbance value at 450 nm measured when a test compound is added)−(Average absorbance value at 450 nm measured in the background)}/{(Average absorbance value at 450 nm measured in the control)−(Average absorbance value at 450 nm measured in the background)}]×100 Equation 1

[3] = evaluation concentration 30 μmol/L
[4] = evaluation concentration 50 μmol/L

| pEC50 [1] | Radical-scavenging action EC50 (μmol/L) [1] | SMILES | Ferroptosis inhibition rate (%) [2, 3] [%] | Ferroptosis inhibition rate (%) [2, 4] [%] |
| --- | --- | --- | --- | --- |
| 5.07 | exhibited radical scavenging action | c1ccc(C2CNc3ccccc3N2)cc1 (stereo not shown) [Comparative Example 1, 2-phenyl-1,2,3,4-tetrahydroquinoxaline, reference compound] |  |  |
| < 4.00 |  | c1ccc([C@H]2CCc3ccccc3N2)cc1 [Example 2, (R)-2-phenyl-1,2,3,4-tetrahydroquinoline] | 117.4 |  |
| < 4.00 |  | c1ccc([C@@H]2CCc3ccccc3N2)cc1 [Example 3, (S)-2-phenyl-1,2,3,4-tetrahydroquinoline] | 110.2 |  |
| < 4.00 |  | CS(=O)(=O)c1ccc(C2CCc3ccccc3N2)cc1 (stereo not shown) [Example 16, 2-(4-(methylsulfonyl)phenyl)-1,2,3,4-tetrahydroquinoline] |  | 90.31 |
| < 4.00 |  | CC(=O)Nc1ccc(C2CCc3ccccc3N2)cc1 (stereo not shown) [Example 21, N-(4-(1,2,3,4-tetrahydroquinolin-2-yl)phenyl)acetamide] | 88.33 |  |
| < 4.00 |  | Fc1ccc(C2CCc3ccccc3N2)cc1 (stereo not shown) [Example 26, 2-(4-fluorophenyl)-1,2,3,4-tetrahydroquinoline] |  | 107.7 |
| < 4.00 |  | FC(F)(F)c1ccc(C2CCc3ccccc3N2)cc1 (stereo not shown) [Example 29, 2-(4-(trifluoromethyl)phenyl)-1,2,3,4-tetrahydroquinoline] |  | 95.38 |
| < 4.00 |  | FC(F)(F)Oc1ccc(C2CCc3ccccc3N2)cc1 (stereo not shown) [Example 31, 2-(4-(trifluoromethoxy)phenyl)-1,2,3,4-tetrahydroquinoline] |  | 98.99 |
| < 4.00 |  | NS(=O)(=O)c1ccc(C2CCc3ccccc3N2)cc1 (stereo not shown) [Example 34, 4-(1,2,3,4-tetrahydroquinolin-2-yl)benzenesulfonamide] | 86.96 |  |
| < 4.00 |  | N#Cc1ccc(C2CCc3ccccc3N2)cc1 (stereo not shown) [Example 35, 4-(1,2,3,4-tetrahydroquinolin-2-yl)benzonitrile] | 106.5 |  |
| < 4.00 |  | NC(=O)c1ccc(C2CCc3ccccc3N2)cc1 (stereo not shown) [Example 37, 4-(1,2,3,4-tetrahydroquinolin-2-yl)benzamide] | 98.69 |  |
| < 4.00 |  | OCc1ccc2c(c1)CCC(c1ccccc1)N2 (stereo not shown) [Example 58, (2-phenyl-1,2,3,4-tetrahydroquinolin-6-yl)methanol] | 91.37 |  |
| < 4.00 |  | NC(=O)Cc1ccc2c(c1)CCC(c1ccccc1)N2 (stereo not shown) [Example 60, 2-(2-phenyl-1,2,3,4-tetrahydroquinolin-6-yl)acetamide] | 98.74 |  |
| < 4.00 |  | CC(C)(C)NC(=O)Cc1ccc2c(c1)CCC(c1ccccc1)N2 (stereo not shown) [Example 61, N-(tert-butyl)-2-(2-phenyl-1,2,3,4-tetrahydroquinolin-6-yl)acetamide] | 103.9 |  |
| < 4.00 |  | O=C(Cc1ccc2c(c1)CCC(c1ccccc1)N2)N1CC(O)C1 (stereo not shown) [Example 62, 1-(3-hydroxyazetidin-1-yl)-2-(2-phenyl-1,2,3,4-tetrahydroquinolin-6-yl)ethan-1-one] | 103.2 |  |
| < 4.00 |  | Fc1cccc2c1CCC(c1ccccc1)N2 (stereo not shown) [Example 66, 5-fluoro-2-phenyl-1,2,3,4-tetrahydroquinoline] | 101.5 |  |
| < 4.00 |  | Clc1cccc2c1CCC(c1ccccc1)N2 (stereo not shown) [Example 67, 5-chloro-2-phenyl-1,2,3,4-tetrahydroquinoline] | 102.4 |  |
|  |  | CC(C)(C)NC(=O)Nc1ccc2c(c1)CCC(c1ccccc1)N2 (stereo not shown) [Example 127, 1-(tert-butyl)-3-(2-phenyl-1,2,3,4-tetrahydroquinolin-6-yl)urea] | 87.93 |  |
|  |  | CC(C)(C)NC(=O)Nc1ccc2c(c1)CCC(c1ccccc1)N2 (stereo not shown) [Example 128, 1-(tert-butyl)-3-(2-phenyl-1,2,3,4-tetrahydroquinolin-6-yl)urea] | 91.83 |  |

| pEC50 [1] | Radical-scavenging action EC50 (μmol/L) [1] | SMILES | Ferroptosis inhibition rate (%) [2, 3] [%] | Ferroptosis inhibition rate (%) [2, 4] [%] |
| --- | --- | --- | --- | --- |
|  |  | CC(C)(C)CC(=O)Nc1ccc2c(c1)CCC(c1ccccc1)N2 (stereo not shown) [Example 129, 3,3-dimethyl-N-(2-phenyl-1,2,3,4-tetrahydroquinolin-6-yl)butanamide] | 88.31 |  |
|  |  | CC(C)(C)CC(=O)Nc1ccc2c(c1)CCC(c1ccccc1)N2 (stereo not shown) [Example 130, 3,3-dimethyl-N-(2-phenyl-1,2,3,4-tetrahydroquinolin-6-yl)butanamide] | 104.2 |  |
|  |  | O=C1CCc2cc(C3CCc4cc(F)ccc4N3)ccc2N1 (stereo not shown) [Example 133, 6-fluoro-1,2,3,3′,4,4′-hexahydro-[2,6′-biquinolin]-2′(1′H)-one] | 98.54 |  |
|  |  | O=C1CCc2cc(C3CCc4ccc(F)cc4N3)ccc2N1 (stereo not shown) [Example 139, 7-fluoro-1,2,3,3′,4,4′-hexahydro-[2,6′-biquinolin]-2′(1′H)-one] | 60.63 |  |
|  |  | N#Cc1ccc(C2CCc3ccccc3N2)cc1F (stereo not shown) [Example 141] | 59.10 |  |
|  |  | NS(=O)(=O)c1ccc(C2CCc3cc(C(F)(F)F)ccc3N2)cc1 (stereo not shown) [Example 142, 4-(6-(trifluoromethyl)-1,2,3,4-tetrahydroquinolin-2-yl)benzenesulfonamide] | 64.86 |  |
|  |  | O=C(Cc1ccc2c(c1)CCC(c1ccccc1)N2)NCC1CC1 (stereo not shown) [Example 153, N-(cyclopropylmethyl)-2-(2-phenyl-1,2,3,4-tetrahydroquin-olin-6-yl)acetamide] | 110.1 |  |
|  |  | O=C(Cc1ccc2c(c1)CCC(c1ccccc1)N2)NCC1COC1 (stereo not shown) [Example 154, N-(oxetan-3-ylmethyl)-2-(2-phenyl-1,2,3,4-tetrahydroquin-olin-6-yl)acetamide] | 114.6 |  |
|  |  | O=C(Cc1ccc2c(c1)CCC(c1ccccc1)N2)N1CCCC1 (stereo not shown) [Example 156, 2-(2-phenyl-1,2,3,4-tetrahydroquinolin-6-yl)-1-(pyrrolidin-1-yl)ethan-1-one] | 57.76 |  |
|  |  | CNC(=O)Cc1ccc2c(c1)CCC(c1ccccc1)N2 (stereo not shown) [Example 159, N-methyl-2-(2-phenyl-1,2,3,4-tetrahydroquinolin-6-yl)acetamide] | 76.27 |  |
|  |  | c1ccc(C2CNc3ccccc3C2)cc1 (stereo not shown) [Example 162, 3-phenyl-1,2,3,4-tetrahydroquinoline] |  | 108.4 |
|  |  | Clc1ccc2c(c1)CC(c1ccccc1)CN2 (stereo not shown) [Example 163, 6-chloro-3-phenyl-1,2,3,4-tetrahydroquinoline] | 89.32 |  |
|  |  | Clc1ccc2c(c1)NCC(c1ccccc1)C2 (stereo not shown) [Example 164, 7-chloro-3-phenyl-1,2,3,4-tetrahydroquinoline] | 72.33 |  |
|  |  | OCc1ccc(C2CNc3ccccc3C2)cc1 (stereo not shown) [Example 165, (4-(1,2,3,4-tetrahydroquinolin-3-yl)phenyl)methanol] | 96.77 |  |
|  |  | NC(=O)c1ccc(C2CNc3ccccc3C2)cc1 (stereo not shown) [Example 166, 4-(1,2,3,4-tetrahydroquinolin-3-yl)benzamide] | 96.52 |  |
|  |  | NS(=O)(=O)c1ccc(C2CNc3ccccc3C2)cc1 (stereo not shown) [Example 167, 4-(1,2,3,4-tetrahydroquinolin-3-yl)benzenesulfonamide] | 76.82 |  |
|  |  | CC(=O)Nc1ccc(C2CNc3ccccc3C2)cc1 (stereo not shown) [Example 168, N-(4-(1,2,3,4-tetrahydroquinolin-3-yl)phenyl)acetamide] | 86.46 |  |
|  |  | CS(=O)(=O)c1ccc(C2CNc3ccccc3C2)cc1 (stereo not shown) [Example 169, 3-(4-(methylsulfonyl)phenyl)-1,2,3,4-tetrahydroquinoline] | 85.58 |  |
|  |  | c1cncc(C2CNc3ccccc3C2)c1 (stereo not shown) [Example 170, 3-(pyridin-3-yl)-1,2,3,4-tetrahydroquinoline] | 93.41 |  |
